The test concerns the target T1, 5-HT3 receptors (Rattus norvegicus, UniProt P35563).
T1 sequence (P35563 24-483): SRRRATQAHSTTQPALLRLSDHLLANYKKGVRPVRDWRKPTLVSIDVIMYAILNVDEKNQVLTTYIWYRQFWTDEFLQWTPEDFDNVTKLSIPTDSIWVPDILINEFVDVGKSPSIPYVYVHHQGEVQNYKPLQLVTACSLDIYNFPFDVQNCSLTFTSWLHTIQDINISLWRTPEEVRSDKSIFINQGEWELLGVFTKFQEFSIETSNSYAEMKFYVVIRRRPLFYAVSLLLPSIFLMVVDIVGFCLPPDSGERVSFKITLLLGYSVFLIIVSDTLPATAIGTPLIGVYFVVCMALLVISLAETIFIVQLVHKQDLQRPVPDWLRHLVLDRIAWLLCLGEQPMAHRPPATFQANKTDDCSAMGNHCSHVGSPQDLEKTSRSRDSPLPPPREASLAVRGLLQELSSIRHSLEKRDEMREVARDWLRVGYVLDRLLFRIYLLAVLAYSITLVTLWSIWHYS
Experimental: The compounds of the invention are tested for 5-HT3 antagonistic activity in the rat vagus by the following procedure:
Segments of the vagus nerve from Sprague-Dawley rats were placed in a perspex chamber and perfused with Krebs solution. Electrodes, positioned at either end of the nerve segment, were used to record the potential differences which ensued upon the addition of various concentrations of 5-HT to one end of the nerve segment. Concentration-response curves to 5-HT were obtained in this manner prior to and following equilibration of the nerve segment with Krebs solution containing the test-substance.

In turn, `CN1[C@@H]2CC[C@H]1C[C@@H](NC(=O)c1cn(C)c3ccccc3c1=O)C2` [Example 1, (Endo)-N-(8-methyl-8-azabicyclo [3.2.1]octan-3-yl)-1,4-dihydro-1-methyl-4-oxoquinoline-3-carboxamide] gave a Kb of 3.98 nM.

The values above are taken from patent US5096901A, “Pharmacologically active amides and esters containing an azabicycloalkane moiety” (John Wyeth & Brother Limited, priority 1989, dated 1992).
